This note sets out measurements from patent US11254668B2, “Pyrazolo[1,5-A]pyrazin-4-yl and related derivatives” (Pfizer Inc., priority 2017, dated 2022).

The IC50 is the concentration needed to halve the response being measured.

Common to all, as to format: biochemical
For one experiment, the target named is TYK2 (Homo sapiens (Human), UniProt P29597). In words: JAK Caliper Enzyme Assay at 1 mM ATP, TYK2. The gist of the method: (§1)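 Human recombinant kinase domain + fluorescently labelled synthetic peptide, 1 mM ATP, RT; enzyme level/time set for 20–30% phosphorylation. EDTA stop. LabChip separation, peak-height % conversion, % effect vs plate controls.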
The target of the next experiment is JAK1 (Homo sapiens (Human), UniProt P23458). The experiment can be described thus: JAK Caliper Enzyme Assay at 1 mM ATP, JAK1. The gist of the method:
(§2)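 IC50 (nM) derived from percent conversion of fluorescently labelled peptide, measured by Caliper LabChip mobility-shift separation after EDTA stop. Each JAK family kinase domain (human, recombinant) run at 1 mM ATP and room temperature, conditions set to 20-30% product; DMSO wells define uninhibited baseline.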

A further experiment has as its target JAK2 (Homo sapiens (Human), UniProt O60674). The experiment can be described thus: JAK Caliper Enzyme Assay at 1 mM ATP, JAK2. Put shortly:
as §1

The target of the next experiment is JAK3 (Homo sapiens (Human), UniProt P52333). In words: JAK Caliper Enzyme Assay at 1 mM ATP, JAK3. The gist of the method: as §2
JAK3, sequence (P52333 822-1111): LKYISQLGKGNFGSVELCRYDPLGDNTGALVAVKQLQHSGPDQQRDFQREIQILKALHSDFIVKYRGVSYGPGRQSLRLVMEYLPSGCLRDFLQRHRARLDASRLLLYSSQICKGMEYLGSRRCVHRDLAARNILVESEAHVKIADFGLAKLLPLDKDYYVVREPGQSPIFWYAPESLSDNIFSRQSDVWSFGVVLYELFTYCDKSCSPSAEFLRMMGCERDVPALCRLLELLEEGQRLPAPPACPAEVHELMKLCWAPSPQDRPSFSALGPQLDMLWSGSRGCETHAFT

JAK1, sequence (P23458 875-1153): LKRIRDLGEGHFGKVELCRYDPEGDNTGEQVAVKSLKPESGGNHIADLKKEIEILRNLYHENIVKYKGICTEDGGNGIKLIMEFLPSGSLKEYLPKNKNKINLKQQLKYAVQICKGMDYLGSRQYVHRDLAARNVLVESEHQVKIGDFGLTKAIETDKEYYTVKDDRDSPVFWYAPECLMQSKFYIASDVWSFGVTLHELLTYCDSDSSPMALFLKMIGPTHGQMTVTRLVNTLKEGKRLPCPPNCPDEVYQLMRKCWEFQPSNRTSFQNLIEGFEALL
JAK2, sequence (O60674 849-1124): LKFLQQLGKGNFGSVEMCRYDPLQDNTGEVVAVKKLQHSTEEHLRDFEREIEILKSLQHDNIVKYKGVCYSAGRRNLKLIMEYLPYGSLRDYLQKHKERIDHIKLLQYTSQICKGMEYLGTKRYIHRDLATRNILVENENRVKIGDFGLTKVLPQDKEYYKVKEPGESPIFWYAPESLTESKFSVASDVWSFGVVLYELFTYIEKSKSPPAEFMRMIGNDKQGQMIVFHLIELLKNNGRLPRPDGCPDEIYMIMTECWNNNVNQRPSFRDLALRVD
TYK2, sequence (P29597 897-1176): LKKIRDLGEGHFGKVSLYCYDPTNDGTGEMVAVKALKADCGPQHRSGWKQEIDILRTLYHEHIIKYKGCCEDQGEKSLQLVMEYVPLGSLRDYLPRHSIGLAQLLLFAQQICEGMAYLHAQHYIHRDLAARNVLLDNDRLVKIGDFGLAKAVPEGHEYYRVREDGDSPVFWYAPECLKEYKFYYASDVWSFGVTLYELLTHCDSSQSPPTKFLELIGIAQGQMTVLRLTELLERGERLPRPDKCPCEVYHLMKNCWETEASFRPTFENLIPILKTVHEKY

Take `Cc1cc(-c2cc(-c3cc[nH]n3)cc3ncccc23)nn1C1(CC#N)CN(S(C)(=O)=O)C1` [Example 293, [3-{5-methyl-3-[7-(1H-pyrazol-3-yl)quinolin-5-yl]-1H-pyrazol-1-yl}-1-(methylsulfonyl)azetidin-3-yl]acetonitrile]: the IC50 on TYK2 is 81 nM; at JAK1, 8190 nM; at JAK2, 2980 nM; on JAK3, over 10000 nM.

In the case of `Cn1cc(-c2cc(-c3cn(C4(CC#N)CN(S(C)(=O)=O)C4)nn3)c3cccnc3c2)cn1` [Example 294, [3-{4-[7-(1-methyl-1H-pyrazol-4-yl)quinolin-5-yl]-1H-1,2,3-triazol-1-yl}-1-(methylsulfonyl)azetidin-3-yl]acetonitrile], the IC50 at TYK2 was 267 nM; at JAK1, 1340 nM; at JAK2, 151 nM; on JAK3 it was over 10000 nM.

Consider `CS(=O)(=O)N1CC(CC#N)(n2cc(-c3cc(-c4ccc(=O)[nH]c4)cc4ncccc34)nn2)C1` [Example 295, [1-(methylsulfonyl)-3-{4-[7-(6-oxo-1,6-dihydropyridin-3-yl)quinolin-5-yl]-1H-1,2,3-triazol-1-yl}azetidin-3-yl]acetonitrile], for which the IC50 is 155 nM on TYK2, 7720 nM on JAK1, 2580 nM on JAK2 and over 10000 nM on JAK3.

For `N#CCC1(n2ncc(-c3cc(-c4cc[nH]n4)cc4ncccc34)n2)CN(CC(F)(F)F)C1` [Example 296, [3-{4-[7-(1H-pyrazol-3-yl)quinolin-5-yl]-2H-1,2,3-triazol-2-yl}-1-(2,2,2-trifluoroethyl)azetidin-3-yl]acetonitrile], the IC50 on TYK2 was 41 nM; on JAK1, 534 nM; at JAK2, 598 nM; at JAK3, over 10000 nM.

As to `N#CCC1(n2ncc(-c3cc(-c4cc[nH]n4)cc4ncccc34)n2)CN(CC2(F)CC2)C1` [Example 297], the IC50 is 315 nM on TYK2, 4590 nM at JAK1, 2470 nM on JAK2 and over 10000 nM at JAK3.

Turning to `N#CCC1(n2ncc(-c3cc(-c4cc[nH]n4)cc4ncccc34)n2)CN(S(=O)(=O)C2CC2)C1` [Example 299, [1-(cyclopropylsulfonyl)-3-{4-[7-(1H-pyrazol-3-yl)quinolin-5-yl]-2H-1,2,3-triazol-2-yl}azetidin-3-yl]acetonitrile], the IC50 at TYK2 was 10 nM; at JAK1 it was 280 nM; on JAK2, 252 nM; on JAK3, over 10000 nM.

As to `N#CCC1(n2ncc(-c3cc(-c4ccn[nH]4)cc4ncccc34)n2)CN(S(=O)(=O)C2COC2)C1` [Example 301, [1-(oxetan-3-ylsulfonyl)-3-{4-[7-(1H-pyrazol-5-yl)quinolin-5-yl]-2H-1,2,3-triazol-2-yl}azetidin-3-yl]acetonitrile], the IC50 at TYK2 is 17 nM; at JAK1, 338 nM; on JAK2, 195 nM; at JAK3, over 10000 nM.

In the case of `N#CC[C@]1(n2ncc(-c3cc(-c4cc[nH]n4)cc4ncccc34)n2)C[C@H](C#N)C1` [Example 302, trans-3-(cyanomethyl)-3-{4-[7-(1H-pyrazol-3-yl)quinolin-5-yl]-2H-1,2,3-triazol-2-yl}cyclobutanecarbonitrile], the IC50 on TYK2 was 20 nM; on JAK1, 436 nM; on JAK2 it was 173 nM; at JAK3, over 10000 nM.

`N#CC[C@]1(n2ncc(-c3cc(-c4cc[nH]n4)cc4ncccc34)n2)C[C@@H](C#N)C1` [Example 303, cis-3-(cyanomethyl)-3-{4-[7-(1H-pyrazol-3-yl)quinolin-5-yl]-2H-1,2,3-triazol-2-yl}cyclobutanecarbonitrile]: the IC50 at TYK2 was 5 nM; at JAK1, 81 nM; on JAK2 it was 29 nM; on JAK3, 3100 nM.

With `CO[C@H]1C[C@@](CC#N)(n2ncc(-c3cc(-c4cc[nH]n4)cc4ncccc34)n2)C1` [Example 304, (cis-3-methoxy-1-{4-[7-(1H-pyrazol-3-yl)quinolin-5-yl]-2H-1,2,3-triazol-2-yl}cyclobutyl)acetonitrile], the IC50 is 36 nM at TYK2, 2300 nM on JAK1, 788 nM on JAK2 and over 10000 nM at JAK3.

Take `CO[C@H]1C[C@](CC#N)(n2ncc(-c3cc(-c4cc[nH]n4)cc4ncccc34)n2)C1` [Example 305, (trans-3-methoxy-1-{4-[7-(1H-pyrazol-3-yl)quinolin-5-yl]-2H-1,2,3-triazol-2-yl}cyclobutyl)acetonitrile]: the IC50 at TYK2 is 35 nM; at JAK1, 2560 nM; at JAK2, 1050 nM; on JAK3, over 10000 nM.

As for `N#CCC1(n2ncc(-c3cc(-c4cc(N)[nH]n4)cc4ncccc34)n2)CC(C#N)C1` (stereo not drawn) [Example 306, trans-3-{4-[7-(5-amino-1H-pyrazol-3-yl)quinolin-5-yl]-2H-1,2,3-triazol-2-yl}-3-(cyanomethyl)cyclobutanecarbonitrile], the IC50 on TYK2 was determined as 14 nM; on JAK1, 255 nM; on JAK2, 174 nM; on JAK3, 9160 nM.

On to `N#CC[C@]1(n2ncc(-c3cc(-c4cc(N)[nH]n4)cc4ncccc34)n2)C[C@@H](C#N)C1` [Example 307, cis-3-{4-[7-(5-amino-1H-pyrazol-3-yl)quinolin-5-yl]-2H-1,2,3-triazol-2-yl}-3-(cyanomethyl)cyclobutanecarbonitrile], for which the IC50 at TYK2 turned out to be 7 nM; on JAK1, 49 nM; on JAK2 it was 30 nM; at JAK3, 1930 nM.

Turning to `N#CC[C@]1(n2ncc(-c3cc(-c4cc(CO)[nH]n4)cc4ncccc34)n2)C[C@H](C#N)C1` [Example 308, trans-3-(cyanomethyl)-3-(4-{7-[5-(hydroxymethyl)-1H-pyrazol-3-yl]quinolin-5-yl}-2H-1,2,3-triazol-2-yl)cyclobutanecarbonitrile], the IC50 was 18 nM on TYK2, 719 nM at JAK1, 131 nM on JAK2 and over 10000 nM at JAK3.

With `Cn1nc(-c2cc(-c3cnn([C@]4(CC#N)C[C@@H](C#N)C4)n3)c3cccnc3c2)cc1CO` [Example 309, trans-3-(cyanomethyl)-3-(4-{7-[5-(hydroxymethyl)-1-methyl-1H-pyrazol-3-yl]quinolin-5-yl}-2H-1,2,3-triazol-2-yl)cyclobutanecarbonitrile], the IC50 is 29 nM on TYK2, 1880 nM on JAK1, 163 nM at JAK2 and over 10000 nM at JAK3.

`Cn1nccc1-c1cc(-c2cnn(C3(CC#N)CN(S(C)(=O)=O)C3)n2)c2cccnc2c1` [Example 310, [3-{4-[7-(1-methyl-1H-pyrazol-5-yl)quinolin-5-yl]-2H-1,2,3-triazol-2-yl}-1-(methylsulfonyl)azetidin-3-yl]acetonitrile]: the IC50 at TYK2 was 725 nM; on JAK1, over 10000 nM; at JAK2, over 10000 nM; on JAK3 it was over 10000 nM.

On to `Cn1ccc(-c2cc(-c3cnn(C4(CC#N)CN(S(C)(=O)=O)C4)n3)c3cccnc3c2)n1` [Example 311, [3-{4-[7-(1-methyl-1H-pyrazol-3-yl)quinolin-5-yl]-2H-1,2,3-triazol-2-yl}-1-(methylsulfonyl)azetidin-3-yl]acetonitrile], for which the IC50 on TYK2 is 25 nM; at JAK1, 2260 nM; at JAK2, 287 nM; at JAK3, over 10000 nM.
